From ChEMBL document CHEMBL1201862, “PubChem BioAssay data set” (2004)
Active and inactive are the calls of the source.

How the values were obtained:
Vero = assay: cells; assay type: functional; conditions: Chlorocebus sabaeus
[1] = target: Glucose-6-phosphate 1-dehydrogenase (Homo sapiens, UniProt P11413); assay: human G6PD enzyme inhibitors, dose response, selectivity assay for P. falciparum G6PD inhibitor project, biochemical, fluorescence (AID 504792); assay type: functional
Fatty acid synthase [2] = target: T1, Fatty acid synthase (Homo sapiens, UniProt P49327); assay: FAS thioesterase domain inhibitors, dose response, biochemical, endpoint fluorescence intensity, uHTS hits (AID 624327); assay type: functional;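 also: fluorescence from hydrolysis of an O-methyl fluorescein acyl ester substrate by the enzyme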
Fatty acid synthase [3] = target: T1, Fatty acid synthase; assay: FAS thioesterase domain inhibitors, dose response, biochemical, kinetic fluorescence intensity (AID 624326); assay type: functional;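 also: rate of fluorescence rise from hydrolysis of a fluorogenic O-methyl fluorescein ester substrate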
[4] = off-target signal loss in HeLa-CEM21 co-culture – HeLa F-luc CTL cells, cherry-picked, counter-screen for HIV-1 Env fusion inhibitor project, dose response (AID 652040); assay type: functional, cell-based;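 also: potency for signal decrease marking cytotoxic or nonspecific inhibition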
[5] = inhibitors of clade B AD8 Env fusion, dose response, cell-based, cherry-pick (AID 652062); assay type: functional;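 also: luciferase signal from cell-cell fusion driven by HIV-1 clade B AD8 Env; potency is for inhibitors of fusion seen as a drop in luminescence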
[6] = ZM109 Env clade C HIV-1 fusion inhibitors, dose response, HeLa effector, CEM target cells, luciferase, cherry-pick (AID 652058); assay type: functional, cell-based
[7] = target: T2, Heat shock factor protein 1 (Mus musculus, UniProt P38532); assay: inhibition of MG132-induced HSE-luciferase signal, confirmation, cell-based, NIH3T3, luminescence, dose retest (AID 2382); assay type: functional;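 also: NIH3T3 fibroblasts with HSF1-driven luciferase reporter stressed by proteasome inhibitor MG132; luminescence from HSF1-driven luciferase expression after 8 hours of MG132 stress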
T2 sequence (P38532 whole entry): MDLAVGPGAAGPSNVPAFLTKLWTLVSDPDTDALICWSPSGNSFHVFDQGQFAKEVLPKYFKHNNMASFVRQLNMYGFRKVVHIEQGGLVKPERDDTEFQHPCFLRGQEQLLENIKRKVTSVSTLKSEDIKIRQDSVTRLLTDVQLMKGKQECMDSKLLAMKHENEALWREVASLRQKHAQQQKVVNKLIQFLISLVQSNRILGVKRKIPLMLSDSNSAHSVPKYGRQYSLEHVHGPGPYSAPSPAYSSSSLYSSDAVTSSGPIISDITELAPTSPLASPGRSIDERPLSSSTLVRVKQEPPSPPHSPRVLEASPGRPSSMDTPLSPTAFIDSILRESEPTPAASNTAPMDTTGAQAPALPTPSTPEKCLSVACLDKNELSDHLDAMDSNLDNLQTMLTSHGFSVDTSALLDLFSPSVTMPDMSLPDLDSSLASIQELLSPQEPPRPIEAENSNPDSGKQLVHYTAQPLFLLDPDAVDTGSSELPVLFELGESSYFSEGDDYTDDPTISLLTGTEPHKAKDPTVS

[8] = inhibitors of HIV Env-driven cell fusion, dose response, cherry-pick (AID 652057); assay type: functional, cell-based
[9] = target: Voltage-dependent T-type calcium channel subunit alpha-1H (Homo sapiens, UniProt O95180); assay type: functional;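 also: channel activity triggered by adding a high calcium stimulation buffer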
[10] = Shn3 3'UTR reporter inhibitors, dose response, cell-based, Clone20 osteoblasts, firefly luciferase, cherry-picked (AID 624132); assay type: functional;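 also: firefly luciferase luminescence from reporter carrying the Shn3 3'UTR in osteoblasts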
Leucine aminopeptidase = target: T3, Leucine aminopeptidase (Plasmodium falciparum 3D7, UniProt Q8IL11); assay: P. falciparum M17LAP inhibitors, primary screen, biochemical, fluorogenic H-Leu-NHMec substrate, 1536-well (AID 1619); assay type: functional
T3 sequence (Q8IL11 whole entry): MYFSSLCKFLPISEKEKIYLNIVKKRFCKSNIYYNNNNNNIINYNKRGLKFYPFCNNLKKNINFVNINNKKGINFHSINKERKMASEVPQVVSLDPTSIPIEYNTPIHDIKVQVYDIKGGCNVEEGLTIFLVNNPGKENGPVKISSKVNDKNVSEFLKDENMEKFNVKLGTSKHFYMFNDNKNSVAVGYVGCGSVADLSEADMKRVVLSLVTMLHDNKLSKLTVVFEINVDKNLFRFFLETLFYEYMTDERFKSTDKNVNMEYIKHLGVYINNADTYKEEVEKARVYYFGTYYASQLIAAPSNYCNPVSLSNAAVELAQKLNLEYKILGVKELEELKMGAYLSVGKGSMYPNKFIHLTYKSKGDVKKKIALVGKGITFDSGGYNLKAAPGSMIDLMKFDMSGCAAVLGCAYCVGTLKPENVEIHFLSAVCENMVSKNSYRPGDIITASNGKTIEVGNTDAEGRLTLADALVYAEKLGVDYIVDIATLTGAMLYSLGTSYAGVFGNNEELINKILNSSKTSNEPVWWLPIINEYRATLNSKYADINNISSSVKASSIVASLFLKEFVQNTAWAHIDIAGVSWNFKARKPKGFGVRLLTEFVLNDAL

T1 sequence (P49327 whole entry, the tested form may be a part): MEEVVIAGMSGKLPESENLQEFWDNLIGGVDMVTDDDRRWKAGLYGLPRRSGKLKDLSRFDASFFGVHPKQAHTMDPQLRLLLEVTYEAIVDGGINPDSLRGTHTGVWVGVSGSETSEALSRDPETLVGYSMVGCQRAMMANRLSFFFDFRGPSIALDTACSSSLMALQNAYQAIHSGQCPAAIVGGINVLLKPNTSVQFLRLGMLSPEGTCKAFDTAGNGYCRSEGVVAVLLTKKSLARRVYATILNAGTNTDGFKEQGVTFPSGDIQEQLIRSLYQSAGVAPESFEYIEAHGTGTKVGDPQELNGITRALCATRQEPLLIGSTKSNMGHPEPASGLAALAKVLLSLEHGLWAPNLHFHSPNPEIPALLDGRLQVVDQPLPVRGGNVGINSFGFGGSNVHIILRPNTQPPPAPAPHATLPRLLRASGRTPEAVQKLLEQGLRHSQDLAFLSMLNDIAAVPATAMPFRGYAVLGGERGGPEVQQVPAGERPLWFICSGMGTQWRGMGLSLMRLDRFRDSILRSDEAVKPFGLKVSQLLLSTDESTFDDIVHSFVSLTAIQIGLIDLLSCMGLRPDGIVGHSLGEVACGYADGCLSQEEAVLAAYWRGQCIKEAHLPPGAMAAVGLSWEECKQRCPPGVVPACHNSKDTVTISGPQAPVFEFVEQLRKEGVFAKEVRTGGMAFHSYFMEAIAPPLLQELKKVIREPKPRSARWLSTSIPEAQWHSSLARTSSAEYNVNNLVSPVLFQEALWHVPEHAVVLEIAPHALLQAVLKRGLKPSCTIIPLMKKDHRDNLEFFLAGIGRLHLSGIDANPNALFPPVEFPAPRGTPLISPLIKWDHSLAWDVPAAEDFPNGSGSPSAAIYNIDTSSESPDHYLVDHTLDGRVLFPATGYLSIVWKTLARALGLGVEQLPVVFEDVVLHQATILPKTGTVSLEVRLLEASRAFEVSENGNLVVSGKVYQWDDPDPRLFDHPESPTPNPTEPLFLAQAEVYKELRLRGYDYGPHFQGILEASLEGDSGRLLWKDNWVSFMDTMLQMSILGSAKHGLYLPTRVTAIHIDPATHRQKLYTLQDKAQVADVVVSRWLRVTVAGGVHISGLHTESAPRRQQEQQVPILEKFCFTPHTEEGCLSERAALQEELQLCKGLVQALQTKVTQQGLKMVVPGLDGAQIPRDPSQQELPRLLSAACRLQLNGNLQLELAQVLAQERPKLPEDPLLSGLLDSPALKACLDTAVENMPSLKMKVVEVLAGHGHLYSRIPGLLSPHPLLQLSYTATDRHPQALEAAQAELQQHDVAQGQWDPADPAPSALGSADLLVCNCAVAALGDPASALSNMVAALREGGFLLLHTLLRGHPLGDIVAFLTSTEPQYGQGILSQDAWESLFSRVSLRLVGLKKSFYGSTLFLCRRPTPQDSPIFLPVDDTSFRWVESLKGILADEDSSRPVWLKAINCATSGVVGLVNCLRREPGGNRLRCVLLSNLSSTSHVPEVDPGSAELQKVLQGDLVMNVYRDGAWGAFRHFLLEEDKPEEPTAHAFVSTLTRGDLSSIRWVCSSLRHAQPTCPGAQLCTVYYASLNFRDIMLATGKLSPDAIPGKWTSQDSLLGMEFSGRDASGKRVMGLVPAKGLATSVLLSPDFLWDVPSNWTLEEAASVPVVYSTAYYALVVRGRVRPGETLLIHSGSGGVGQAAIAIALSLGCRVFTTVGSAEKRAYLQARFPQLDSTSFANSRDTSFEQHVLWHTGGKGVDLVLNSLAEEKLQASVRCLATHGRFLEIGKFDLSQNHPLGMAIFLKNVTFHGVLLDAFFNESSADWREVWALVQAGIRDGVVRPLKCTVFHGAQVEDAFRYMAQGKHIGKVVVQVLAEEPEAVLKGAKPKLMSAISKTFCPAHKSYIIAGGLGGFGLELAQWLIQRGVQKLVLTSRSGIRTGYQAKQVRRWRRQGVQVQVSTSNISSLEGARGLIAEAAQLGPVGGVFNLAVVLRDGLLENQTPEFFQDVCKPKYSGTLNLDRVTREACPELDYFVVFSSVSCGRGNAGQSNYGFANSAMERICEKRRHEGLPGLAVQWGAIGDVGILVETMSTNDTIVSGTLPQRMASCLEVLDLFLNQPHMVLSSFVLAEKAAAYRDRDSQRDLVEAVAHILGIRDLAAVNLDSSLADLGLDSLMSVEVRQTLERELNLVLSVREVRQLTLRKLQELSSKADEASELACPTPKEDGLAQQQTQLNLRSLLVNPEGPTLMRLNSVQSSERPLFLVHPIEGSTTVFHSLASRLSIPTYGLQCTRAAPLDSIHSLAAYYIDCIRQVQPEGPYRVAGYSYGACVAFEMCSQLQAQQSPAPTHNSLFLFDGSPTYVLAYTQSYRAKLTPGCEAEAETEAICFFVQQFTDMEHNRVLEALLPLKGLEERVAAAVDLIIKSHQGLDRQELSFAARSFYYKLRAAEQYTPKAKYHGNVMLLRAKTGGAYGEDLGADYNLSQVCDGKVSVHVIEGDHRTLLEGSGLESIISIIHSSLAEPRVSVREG
Sequence of Voltage-dependent T-type calcium channel subunit alpha-1H (O95180 whole entry): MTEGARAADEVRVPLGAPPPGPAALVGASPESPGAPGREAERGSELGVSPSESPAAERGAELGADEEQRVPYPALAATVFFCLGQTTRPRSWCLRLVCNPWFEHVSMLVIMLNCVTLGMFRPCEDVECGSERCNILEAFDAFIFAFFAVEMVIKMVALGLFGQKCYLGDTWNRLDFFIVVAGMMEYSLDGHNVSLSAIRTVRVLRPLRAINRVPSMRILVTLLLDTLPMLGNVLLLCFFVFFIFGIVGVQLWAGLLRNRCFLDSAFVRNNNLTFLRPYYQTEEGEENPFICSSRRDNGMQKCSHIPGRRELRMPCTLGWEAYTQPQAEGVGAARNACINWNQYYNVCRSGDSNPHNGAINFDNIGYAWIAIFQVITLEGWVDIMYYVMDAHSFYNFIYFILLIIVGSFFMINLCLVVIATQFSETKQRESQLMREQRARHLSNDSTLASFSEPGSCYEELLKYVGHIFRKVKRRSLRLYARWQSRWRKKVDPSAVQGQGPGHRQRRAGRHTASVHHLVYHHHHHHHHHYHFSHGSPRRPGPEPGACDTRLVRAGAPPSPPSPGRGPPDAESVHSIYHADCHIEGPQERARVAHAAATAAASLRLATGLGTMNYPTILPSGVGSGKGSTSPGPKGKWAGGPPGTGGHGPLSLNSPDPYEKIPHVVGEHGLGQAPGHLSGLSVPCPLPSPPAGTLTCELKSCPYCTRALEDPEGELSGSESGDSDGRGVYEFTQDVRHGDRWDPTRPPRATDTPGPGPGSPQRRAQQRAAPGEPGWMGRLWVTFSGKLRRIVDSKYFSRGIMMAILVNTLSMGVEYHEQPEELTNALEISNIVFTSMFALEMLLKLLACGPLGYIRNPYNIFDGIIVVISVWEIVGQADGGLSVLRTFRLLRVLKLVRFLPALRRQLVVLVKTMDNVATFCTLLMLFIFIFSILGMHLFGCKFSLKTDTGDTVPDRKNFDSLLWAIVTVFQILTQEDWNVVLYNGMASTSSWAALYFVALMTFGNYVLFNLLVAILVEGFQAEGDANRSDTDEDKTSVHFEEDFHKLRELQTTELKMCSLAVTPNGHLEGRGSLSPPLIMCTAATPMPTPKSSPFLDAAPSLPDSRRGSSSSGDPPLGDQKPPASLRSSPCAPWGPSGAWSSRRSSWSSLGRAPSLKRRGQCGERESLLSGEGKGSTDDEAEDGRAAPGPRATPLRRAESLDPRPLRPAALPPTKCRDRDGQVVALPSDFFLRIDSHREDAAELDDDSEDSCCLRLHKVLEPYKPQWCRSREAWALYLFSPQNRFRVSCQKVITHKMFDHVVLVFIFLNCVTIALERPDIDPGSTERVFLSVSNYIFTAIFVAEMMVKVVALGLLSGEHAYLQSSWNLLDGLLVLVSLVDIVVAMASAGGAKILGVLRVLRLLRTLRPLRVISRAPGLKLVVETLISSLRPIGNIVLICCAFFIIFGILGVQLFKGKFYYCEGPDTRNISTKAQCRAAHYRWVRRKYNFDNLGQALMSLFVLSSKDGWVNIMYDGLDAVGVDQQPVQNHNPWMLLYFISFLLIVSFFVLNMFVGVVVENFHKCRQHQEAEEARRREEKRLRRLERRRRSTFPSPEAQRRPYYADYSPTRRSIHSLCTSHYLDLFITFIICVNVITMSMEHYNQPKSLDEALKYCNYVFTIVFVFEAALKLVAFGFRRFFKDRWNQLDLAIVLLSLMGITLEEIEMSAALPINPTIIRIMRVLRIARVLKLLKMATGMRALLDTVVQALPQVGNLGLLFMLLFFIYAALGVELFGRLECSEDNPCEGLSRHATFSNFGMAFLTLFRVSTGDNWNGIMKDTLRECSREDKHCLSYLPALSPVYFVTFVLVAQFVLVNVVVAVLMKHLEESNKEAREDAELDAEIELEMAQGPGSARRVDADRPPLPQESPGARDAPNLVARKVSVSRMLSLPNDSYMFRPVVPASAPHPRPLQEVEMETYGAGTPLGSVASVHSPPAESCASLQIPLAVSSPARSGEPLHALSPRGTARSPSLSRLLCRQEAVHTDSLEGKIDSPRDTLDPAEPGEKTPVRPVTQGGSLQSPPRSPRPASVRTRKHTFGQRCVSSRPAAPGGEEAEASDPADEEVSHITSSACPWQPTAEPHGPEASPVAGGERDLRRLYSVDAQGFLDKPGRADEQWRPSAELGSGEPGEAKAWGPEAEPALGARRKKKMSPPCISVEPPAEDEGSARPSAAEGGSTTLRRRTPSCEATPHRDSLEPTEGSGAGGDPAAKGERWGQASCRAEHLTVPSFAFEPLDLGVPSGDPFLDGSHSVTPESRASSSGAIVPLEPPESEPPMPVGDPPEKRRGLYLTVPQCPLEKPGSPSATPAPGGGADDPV

## COc1cc(/C=C/C(=O)c2ccc(NS(=O)(=O)c3ccc(C)cc3)cc2)ccc1OC(F)F
Vero
  CC50: 22.5 µM (active)

## COc1cc(NC(C)CCc2ccccc2)cc(OC)c1OC (stereo unspecified)
[1]
  IC50: 43.3 µM (inactive)

## N#CC1CCN(C(=O)c2ccc3c(Cl)c4c(nc3c2)CCCC4)CC1
Fatty acid synthase [2]
  IC50: 2.16 µM (active)
Fatty acid synthase [3]
  IC50: 1.89 µM (active)

## CCN(CC)c1ncnc2ccc(Br)cc12
[4]
  AC50: 3.74 µM (active)
[5]
  AC50: 6.58 µM (active)
[6]
  AC50: 6 µM (active)
[7]
  EC50: 13.8 µM (active)
[8]
  AC50: 3.83 µM (active)

## O=C(CCC(=O)Nc1ccccc1Cl)N/N=C/c1ccccc1
[1]
  IC50: 31.6 µM (inactive)

## N=C(N)N/N=C/c1ccc(Cl)c(Cl)c1
Vero
  CC50: 21.4 µM (active)

## O=C(c1cc2sccc2n1Cc1ccc(F)cc1)N1CCCc2ccccc21
[9]
  EC50: 4.88 µM (active)

## COc1ccccc1N1CCN(CC(O)COc2ccc3c(c2)CCC3)CC1 (stereo unspecified)
[9]
  EC50: 5.92 µM (active)

## CCN(CC)S(=O)(=O)c1ccc(N2CCOCC2)c(NC(=O)c2nn(C(C)C)c(=O)c3ccccc23)c1
[10]
  AC50: 15.6 µM (active)

## COc1ccc(-c2c[nH]nc2N)cc1
Leucine aminopeptidase
  IC50: 60.8 µM (active)

## CCOC(=O)Cc1cc(O)n2nc(C(C)(C)C)cc2n1
[1]
  IC50: > 80 µM (inactive)

## COC(=O)c1cccc(NC(=O)Cn2cnc3ccccc3c2=O)c1
Leucine aminopeptidase
  IC50: 43.5 µM (active)

## O=C(NNc1cccc([N+](=O)[O-])c1)/C(=C\c1cccnc1)NC(=O)c1ccccc1
Fatty acid synthase [2]
  IC50: 6.04 µM (active)
Fatty acid synthase [3]
  IC50: 4.39 µM (active)

## Cc1[nH]c2ccccc2c1Cc1nnc(SCc2ccccc2)o1
[9]
  EC50: 3.55 µM (active)

## CCOC(=O)CSC(C)C(=O)Nc1nnc(C(C)C)s1 (stereo unspecified)
Leucine aminopeptidase
  IC50: 37.7 µM (active)
